Results as given in article PMC4064249, “Differences in proton pumping and Na/H exchange at the leaf cell tonoplast between a halophyte and a glycophyte” (AoB Plants, 2014).
Where two headings read alike, the source gives them in different places.

Columns and labels:
[1] = test system: T1, V-H+-ATPase; details: ATP 0.05-1.5 mM, […] MgCl2, 100 mM KCl, MOPS-TRIS pH 7.0, 22 °C; control plants (10 mM NaCl); corrected for vesicle orientation
T1 construct: gene VHA-A
Description: ATP-dependent H+ transport, ACMA fluorescence quenching, Michaelis-Menten fit on V-H+-ATPase | Kinetic analysis was performed by fitting a Michaelis–Menten curve through the data points

[2] = test system: T2, V-H+-PPase; details: PPi 0.005-[…], […] MgCl2, 100 mM KCl, MOPS-TRIS pH 7.0, 22 °C, corrected for vesicle orientation
T2 construct: gene VHP1
Description: PPi-dependent H+ transport, ACMA fluorescence quenching, Michaelis-Menten fit on V-H+-PPase | Kinetic analysis was performed by fitting a Michaelis–Menten curve through the data points

Row | SMILES | Km [1] | Km ([2]; control plants (0 mM NaCl)) | Km ([2]; control plants (10 mM NaCl))
1 | Nc1ncnc2c1ncn2[C@@H]1O[C@H](COP(=O)(O)OP(=O)(O)OP(=O)(O)O)[C@@H](O)[C@H]1O [ATP] | 250 ± 110 µM |  | 
2 | O=P(O)(O)OP(=O)(O)O [pyrophosphate] |  | 43 ± 24 µM | 34 ± 14 µM
